Assay results reported in US20250152559A1, “METHODS FOR TREATING MYC-AMPLIFIED CANCER” (The Governing Council of the University of Toronto, priority 2023, published 2025).

System: SU_MB002 cells
Assay: Mass spectrometry-based metabolomics and lipidomics of treated cells
Assay type: cell-based, human
Experimental: For metabolome and lipidome profiling, ˜10^6 cells and tissues were washed with PBS prior to collection and immediately flash frozen. For metabolite extraction, 1 mL of cold acetonitrile/methanol/water (2:2:1; v:v:v) was added to the cell pellets followed by 3 cycles of freezing in liquid N2 for 1 min, followed by 15 min of thawing in a sonicating ice/water bath. This was followed by incubation at −20° C. and centrifugation at 16,000×g for 15 min at 4° C. […] to fully precipitate protein. Supernatants were transferred to another tube and dried in a vacuum concentrator. For lipid extraction, cells were resuspended in 30 μL of water, followed by three cycles of freeze/thawing and sonication. To this, 225 μL of methanol was added, followed by brief vortexing and addition of 750 μL of methyl tert-butyl ether (MTBE). Samples were incubated at room temperature for 1 hr with gentle shaking. To induce phase-separation, 188 μL of water was added, samples were vortexed for 20 s and centrifuged for 5 min at 16,000×g. The upper and lower phases were collected and transferred to another tube and dried down in a vacuum concentrator. The dry metabolome and lipidome extracts were stored at −80° C. prior to analysis by liquid chromatography-mass spectrometry (LC-MS). Metabolite extracts were reconstituted in LC-MS grade water/acetonitrile (50:50; v:v), vortexed for 1 min, sonicated for 15 min, and centrifuged at 16,000×g and 4° C. for 15 min to remove insoluble debris. The lipidome extracts were reconstituted in acetonitrile/2-propanol (50:50; v:v), vortexed for 1 min, sonicated for 15 min, and centrifuged at 16,000×g and 10° C. for 15 min to remove insoluble debris.
The LC-MS metabolomics and lipidomics analyses of the 3 NSC and 3 MB cell lines and tissues were performed on a UPLC-MS system consisting of an Orbitrap IQ-X Tribrid coupled to a Horizon Vanquish UPLC system (Thermo Fisher Scientific). The lipidomics analysis was conducted in positive-ion mode with a spray voltage of 3.5 kV while the metabolomics analysis was conducted in negative-ion mode with a spray voltage of −2.5 kV. The following source conditions were identical in both analyses and were set as follows: Sheath gas flow rate, 50 arbitrary units; Aux. gas flow rate, 10 arbitrary units; Sweep gas flow rate, 1 arbitrary unit; Ion transfer tube temp., 300° C.; Vaporizer temp., 350° C. The following acquisition parameters were used for MS1 analysis in both methods: resolution, 120,000, AGC target, 4e5. The maximum IT was set at […] for the lipidomics analysis and 200 ms for the metabolomics analysis. Data-dependent MS/MS parameters for the lipidomics analyses: resolution, 30,000; AGC target, 7.5e4; maximum IT, Dynamic (54 ms); time between Master Scans, 0.6 s; isolation window, 1.0 m/z; NCE/stepped nce, 20, 30, 40; intensity threshold, 5e4; exclude isotopes, on; dynamic exclusion, 3.0 s. Data-dependent MS/MS parameters for the metabolomics analyses: resolution. 15,000; AGC target, 7.5e4; maximum IT, Dynamic (22 ms); time between Master Scans, 0.6 s; isolation window, 1.0 m/z; NCE/stepped nce, 20, 30, 40, 50; intensity threshold, 5e4; exclude isotopes, on; dynamic exclusion, 5.0 s. To increase the total number of MS/MS spectra in the lipidomics analysis, five runs with iterative MS/MS exclusions were performed using the AcquireX function in Xcalibur (Thermo Fisher Scientific). In the metabolomics analysis, three runs with iterative MS/MS exclusions were performed using the AcquireX function. For the lipidomics analysis, chromatographic separation was achieved using a Waters Acquity UPLC CSH C18 (100 mm×2.1 mm i.d.; 1.7 μm) column injecting 2 μL. […] The column was equilibrated for 2 min at 15% B. The flow rate was set to 250 μL/min. The column temperature was maintained at 65° C. For the metabolomics analysis, chromatographic separation was achieved using a SeQuant ZIC-PHILIC (150 mm×2.1 mm i.d.; 5 μm) column injecting 2 μL. […]

[1] = SU_MB002 cells treated with BAY (IC90)
[2] = SU_MB002 cells, BAY (IC90) vs vehicle

## CCn1c(CO)nn(-c2cc(O[C@@H](C)C(F)(F)F)c(C(=O)Nc3c(F)cccc3Cl)cc2F)c1=O [BAY2402234]
[1]
  2-Aminoadipic acid normalized peak intensity, BAY average: 26487
  Argininosuccinic acid normalized peak intensity, BAY average: 114194
  Asparagine normalized peak intensity, BAY average: 172639.25
  Aspartic Acid normalized peak intensity, BAY average: 214198
  CDP normalized peak intensity, BAY average: 5476872.25
  CTP normalized peak intensity, BAY average: 810207.75
  Citramalate normalized peak intensity, BAY average: 4459.5
  Citrate normalized peak intensity, BAY average: 76953
  Creatine phosphate normalized peak intensity, BAY average: 619707.25
  Cystathionine normalized peak intensity, BAY average: 3636
  Dihydroorotic Acid normalized peak intensity, BAY average: 462202
  Gluconic acid normalized peak intensity, BAY average: 1081576.5
  Glutamate normalized peak intensity, BAY average: 26227101.8
  Glyceraldehyde-3-phosphate normalized peak intensity, BAY average: 78313.3333
  Hydroxyglutaric acid normalized peak intensity, BAY average: 37974496.3
  Inositol normalized peak intensity, BAY average: 40859409.5
  N-Acetyl glucosamine monophosphate normalized peak intensity, BAY average: 8697678.5
  N-Acetylglutamic Acid normalized peak intensity, BAY average: 189382
  N-Carbamoyl Aspartic Acid normalized peak intensity, BAY average: 31547.3333
  PE O-32:1 normalized peak intensity, BAY average: 2472183.74
  PE O-32:2 normalized peak intensity, BAY average: 11446617.4
  PE O-34:1 normalized peak intensity, BAY average: 3839410.03
  PE O-34:2 normalized peak intensity, BAY average: 92503648
  PE O-36:1 normalized peak intensity, BAY average: 531398.036
  PE O-36:2 normalized peak intensity, BAY average: 102597837
  PE O-36:4 normalized peak intensity, BAY average: 258977958
  PE O-38:4 normalized peak intensity, BAY average: 210123122
  PE O-40:2 normalized peak intensity, BAY average: 10612336
  PE O-40:4 normalized peak intensity, BAY average: 226507622
  PE O-42:3 normalized peak intensity, BAY average: 911901.571
  PE O-42:4 normalized peak intensity, BAY average: 13670542.5
  PE O-42:5 normalized peak intensity, BAY average: 14681375.2
  Proline normalized peak intensity, BAY average: 129729612
  Saccharopine normalized peak intensity, BAY average: 11126.3333
  Sarcosine normalized peak intensity, BAY average: 178498.5
  TG(42:0) normalized peak intensity, BAY average: 15967351.9
  TG(44:0) normalized peak intensity, BAY average: 64916660.2
  TG(44:1) normalized peak intensity, BAY average: 72494555.5
  TG(44:2) normalized peak intensity, BAY average: 23582680.7
  TG(46:3) normalized peak intensity, BAY average: 35191113.7
  TG(48:0) normalized peak intensity, BAY average: 234715455
  TG(48:1) normalized peak intensity, BAY average: 2421262.9
  TG(48:3) normalized peak intensity, BAY average: 16895583.2
  TG(48:4) normalized peak intensity, BAY average: 33300539.1
  TG(48:5) normalized peak intensity, BAY average: 2707280.56
  TG(50:0) normalized peak intensity, BAY average: 235218307
  TG(50:2) normalized peak intensity, BAY average: 1182402177
  TG(50:3) normalized peak intensity, BAY average: 595402718
  TG(52:1) normalized peak intensity, BAY average: 649526618
  TG(52:5) normalized peak intensity, BAY average: 9440406.47
  TG(54:1) normalized peak intensity, BAY average: 104051454
  TG(54:6) normalized peak intensity, BAY average: 36773026.8
  TG(56:7) normalized peak intensity, BAY average: 13481295.5
  UDP normalized peak intensity, BAY average: 964954.5
  UDP-Glucose normalized peak intensity, BAY average: 609888.333
  UTP normalized peak intensity, BAY average: 215065
  Uridine normalized peak intensity, BAY average: 26154.5
  Xanthosine normalized peak intensity, BAY average: 617698.75
  alpha-Ketoglutaric acid normalized peak intensity, BAY average: 112368
  dCTP normalized peak intensity, BAY average: 109835
  dTDP normalized peak intensity, BAY average: 13149248
[2]
  2-Aminoadipic acid Log2 Fold Change: (BAY)/(DMSO): −1.831
  Argininosuccinic acid Log2 Fold Change: (BAY)/(DMSO): 0.9374
  Asparagine Log2 Fold Change: (BAY)/(DMSO): −2.552
  Aspartic Acid Log2 Fold Change: (BAY)/(DMSO): 0.6679
  CDP Log2 Fold Change: (BAY)/(DMSO): −1.056
  CTP Log2 Fold Change: (BAY)/(DMSO): −1.688
  Citramalate Log2 Fold Change: (BAY)/(DMSO): −1.15
  Citrate Log2 Fold Change: (BAY)/(DMSO): −2.924
  Creatine phosphate Log2 Fold Change: (BAY)/(DMSO): −0.8039
  Cystathionine Log2 Fold Change: (BAY)/(DMSO): −1.709
  Dihydroorotic Acid Log2 Fold Change: (BAY)/(DMSO): −2.147
  Gluconic acid Log2 Fold Change: (BAY)/(DMSO): 2.808
  Glutamate Log2 Fold Change: (BAY)/(DMSO): 0.5525
  Glyceraldehyde-3-phosphate Log2 Fold Change: (BAY)/(DMSO): −1.224
  Hydroxyglutaric acid Log2 Fold Change: (BAY)/(DMSO): 7.211
  Inositol Log2 Fold Change: (BAY)/(DMSO): −0.7576
  N-Acetyl glucosamine monophosphate Log2 Fold Change: (BAY)/(DMSO): −0.5317
  N-Acetylglutamic Acid Log2 Fold Change: (BAY)/(DMSO): 1.218
  N-Carbamoyl Aspartic Acid Log2 Fold Change: (BAY)/(DMSO): −2.853
  PE O-32:1 Log2 Fold Change: (BAY)/(DMSO): 1.371
  PE O-32:2 Log2 Fold Change: (BAY)/(DMSO): 1.59
  PE O-34:1 Log2 Fold Change: (BAY)/(DMSO): 0.7945
  PE O-34:2 Log2 Fold Change: (BAY)/(DMSO): 1.319
  PE O-36:1 Log2 Fold Change: (BAY)/(DMSO): 0.9815
  PE O-36:2 Log2 Fold Change: (BAY)/(DMSO): 0.7435
  PE O-36:4 Log2 Fold Change: (BAY)/(DMSO): 0.9655
  PE O-38:4 Log2 Fold Change: (BAY)/(DMSO): 0.6388
  PE O-40:2 Log2 Fold Change: (BAY)/(DMSO): 0.4723
  PE O-40:4 Log2 Fold Change: (BAY)/(DMSO): 0.2968
  PE O-42:3 Log2 Fold Change: (BAY)/(DMSO): 0.5216
  PE O-42:4 Log2 Fold Change: (BAY)/(DMSO): 0.6964
  PE O-42:5 Log2 Fold Change: (BAY)/(DMSO): 0.2828
  Proline Log2 Fold Change: (BAY)/(DMSO): 11.27
  Saccharopine Log2 Fold Change: (BAY)/(DMSO): −1.712
  Sarcosine Log2 Fold Change: (BAY)/(DMSO): −0.4764
  TG(42:0) Log2 Fold Change: (BAY)/(DMSO): 2.859
  TG(44:0) Log2 Fold Change: (BAY)/(DMSO): 2.947
  TG(44:1) Log2 Fold Change: (BAY)/(DMSO): 3.568
  TG(44:2) Log2 Fold Change: (BAY)/(DMSO): 4.285
  TG(46:3) Log2 Fold Change: (BAY)/(DMSO): 4.265
  TG(48:0) Log2 Fold Change: (BAY)/(DMSO): 1.816
  TG(48:1) Log2 Fold Change: (BAY)/(DMSO): 2.541
  TG(48:3) Log2 Fold Change: (BAY)/(DMSO): 3.131
  TG(48:4) Log2 Fold Change: (BAY)/(DMSO): 3.96
  TG(48:5) Log2 Fold Change: (BAY)/(DMSO): 5.389
  TG(50:0) Log2 Fold Change: (BAY)/(DMSO): 1.574
  TG(50:2) Log2 Fold Change: (BAY)/(DMSO): 1.881
  TG(50:3) Log2 Fold Change: (BAY)/(DMSO): 2.346
  TG(52:1) Log2 Fold Change: (BAY)/(DMSO): 1.065
  TG(52:5) Log2 Fold Change: (BAY)/(DMSO): 2.418
  TG(54:1) Log2 Fold Change: (BAY)/(DMSO): 0.738
  TG(54:6) Log2 Fold Change: (BAY)/(DMSO): 1.79
  TG(56:7) Log2 Fold Change: (BAY)/(DMSO): 1.418
  UDP Log2 Fold Change: (BAY)/(DMSO): −3.019
  UDP-Glucose Log2 Fold Change: (BAY)/(DMSO): −2.77
  UTP Log2 Fold Change: (BAY)/(DMSO): −3.375
  Uridine Log2 Fold Change: (BAY)/(DMSO): −4.037
  Xanthosine Log2 Fold Change: (BAY)/(DMSO): 3.486
  alpha-Ketoglutaric acid Log2 Fold Change: (BAY)/(DMSO): −1.687
  dCTP Log2 Fold Change: (BAY)/(DMSO): 2.27
  dTDP Log2 Fold Change: (BAY)/(DMSO): 1.896
